Measured values taken from patent publication US11453681B2, “Substituted eneoxindoles and uses thereof” (Gilead Sciences, Inc., priority 2019, dated 2022).

Molecular target: human HPK1 (MAP4K1) (Homo sapiens (Human), UniProt Q92918)
Assay: HPK1 IC50 Assay
Type: biochemical
Conditions: recombinant HPK1 kinase domain 0.15 nM, synthetic peptide substrate STK S1, 3 hours at 25° C., time-resolved fluorescence energy transfer; geometric mean of multiple experiments
Description: The enzymatic activity of human HPK1 (MAP4K1) was monitored in a biochemical assay in the presence or absence of compounds and using a synthetic peptide substrate. An increase in phosphorylation of the peptide by HPK1 was indicative of its kinase activity.
Recombinant HPK1 kinase domain produced via baculovirus infection of insect cells was obtained from Proteros (Proteros Biostructures #PR-0322) and was pre-activated in the presence of 2 mM ATP (Sigma-Aldrich, cat #GE27-2056-01) and 2 mM magnesium chloride for 16 hours at 4° C. The protein reaction mixture was then loaded to a desalting column (Thermo Fisher Scientific, Cat #89889) to remove excess ATP. HPK1 was eluted with buffer containing 20 mM Tris (2-Amino-2-(hydroxymethyl)propane-1,3-diol) pH 8.0, 150 mM NaCl, 2 mM dithiothreitol and 5% glycerol, and was frozen at −80° C. for later use. HPK1 dual phosphorylation was confirmed by mass spectrometry.
Ten nanoliters of test compounds dissolved in DMSO at various concentrations were dispensed into a 384-well ProxiPlate (PerkinElmer #6008289). Five microliters of a solution of recombinant HPK1 diluted in HPK1 kinase assay buffer (50 mM BES [N,N-Bis(2-hydroxyethyl)-2-aminoethanesulfonic acid], pH 7.0; 10 mM magnesium chloride; 0.01% Triton X-100; 1 mM dithiothreitol; 0.01% bovine serum albumin; 0.1 mM sodium orthovanadate) was added to the compound-containing plate and was incubated for 15 minutes at 25° C. Five microliters of a mixture of ATP (Sigma-Aldrich #A6559) and peptide substrate STK Si (Cisbio #61ST1BLC) diluted in HPK1 kinase assay buffer was then added to start the reaction. Final concentrations were 0.15 nM for HPK1, […], and 1 […]. The reaction mixture was incubated at 25° C. for 3 hours and was stopped with the addition of 10 μl of an EDTA (Ethylenediaminetetraacetic acid)-containing detection buffer (Cisbio #62SDBRDF) supplemented with Europium cryptate-labeled anti-phospho-serine/threonine antibodies (Cisbio #62ST1PEJ) and XL665-labeled streptavidin (Cisbio #610SAXLG). The mixture was incubated for 16 hours at room temperature and peptide phosphorylation was measured by time-resolved fluorescence energy transfer (665 nm/620 nm) on an Envision plate reader (PerkinElmer).
Data in Table 1 were normalized based on positive (staurosporine) and negative (DMSO) controls. Least squares curve fittings were performed using a four-parameter variable slope nonlinear regression model. IC50 is defined as the concentration of compound required to inhibit 50% of maximum phosphorylation. IC50 values from multiple experiments were averaged by geometric mean and the standard deviation was calculated.

human HPK1 (MAP4K1), sequence (Q92918 17-274): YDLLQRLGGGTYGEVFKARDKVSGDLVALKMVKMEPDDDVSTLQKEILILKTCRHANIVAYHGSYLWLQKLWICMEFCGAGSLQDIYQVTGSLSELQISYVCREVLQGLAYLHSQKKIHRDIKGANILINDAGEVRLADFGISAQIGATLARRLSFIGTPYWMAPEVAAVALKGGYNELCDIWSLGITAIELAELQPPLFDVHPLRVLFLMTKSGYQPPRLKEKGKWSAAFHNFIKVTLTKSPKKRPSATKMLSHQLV

Cc1c(-c2ccc3c(c2)C(=Cc2cccs2)C(=O)N3)cnc2c1NCCO2 (racemic) [Compound C19, (E and Z)-5-(8-methyl-2,3-dihydro-1H-pyrido[2,3-b][1,4]oxazin-7-yl)-3-(thiophen-2-ylmethylene)indolin-2-one]
IC50: 1.88 nM

CCN(CC)CCNC(=O)c1c(C)[nH]c(/C=C2\C(=O)Nc3cc(F)c(-c4cnc5c(c4C)NCCO5)cc32)c1C [Compound C1, (Z)—N-(2-(diethylamino)ethyl)-5-((6-fluoro-5-(8-methyl-2,3-dihydro-1H-pyrido[2,3-b][1,4]oxazin-7-yl)-2-oxoindolin-3-ylidene)methyl)-2,4-dimethyl-1H-pyrrole-3-carboxamide]
IC50: 0.05 nM

Cc1ncc(/C=C2\C(=O)Nc3ccc(-c4ccc5c(c4C)NCCO5)cc32)[nH]1 [Compound C2, (Z)-3-((2-methyl-1H-imidazol-5-yl)methylene)-5-(5-methyl-3,4-dihydro-2H-benzo[b][1,4]oxazin-6-yl)indolin-2-one]
IC50: 1.95 nM

Cc1ncc(/C=C2\C(=O)Nc3cc(C)c(-c4cnc5c(c4C)NCCO5)cc32)[nH]1 [Compound C3, (Z)-6-methyl-3-((2-methyl-1H-imidazol-5-yl)methylene)-5-(8-methyl-2,3-dihydro-1H-pyrido[2,3-b][1,4]oxazin-7-yl)indolin-2-one]
IC50: 0.19 nM

Cc1ncc(/C=C2\C(=O)Nc3c(F)cc(-c4cnc5c(c4C)NCCO5)c(C)c32)[nH]1 [Compound C4, (Z)-7-fluoro-4-methyl-3-((2-methyl-1H-imidazol-5-yl)methylene)-5-(8-methyl-2,3-dihydro-1H-pyrido[2,3-b][1,4]oxazin-7-yl)indolin-2-one]
IC50: 0.15 nM

Cc1ncc(/C=C2\C(=O)Nc3c(F)cc(-c4cnc5c(c4)NCCO5)c(C)c32)[nH]1 [Compound C5, (Z)-5-(2,3-dihydro-H-pyrido[2,3-b][1,4]oxazin-7-yl)-7-fluoro-4-methyl-3-((2-methyl-TH-imidazol-5-yl)methylene)indolin-2-one]
IC50: 7.43 nM

CCc1nc(C)c(/C=C2\C(=O)Nc3ccc(-c4cnc5c(c4C)NCCO5)cc32)[nH]1 [Compound C6, (Z)-3-((2-ethyl-4-methyl-1H-imidazol-5-yl)methylene)-5-(8-methyl-2,3-dihydro-1H-pyrido[2,3-b][1,4]oxazin-7-yl)indolin-2-one]
IC50: 0.12 nM

Cc1ncc(/C=C2\C(=O)Nc3cc(Cl)c(-c4cnc5c(c4C)NCCO5)cc32)[nH]1 [Compound C7, (Z)-6-chloro-3-((2-methyl-1H-imidazol-5-yl)methylene)-5-(8-methyl-2,3-dihydro-1H-pyrido[2,3-b][1,4]oxazin-7-yl)indolin-2-one]
IC50: 0.29 nM

Cc1ncc(/C=C2\C(=O)Nc3cc(F)c(-c4cnc5c(c4C)NCCO5)cc32)[nH]1 [Compound C8, (Z)-6-fluoro-3-((2-methyl-H-imidazol-5-yl)methylene)-5-(8-methyl-2,3-dihydro-1H-pyrido[2,3-b][1,4]oxazin-7-yl)indolin-2-one]
IC50: 0.18 nM

CCN(CC)CCNC(=O)c1c(C)[nH]c(/C=C2\C(=O)Nc3c(F)cc(-c4cnc5c(c4C)NCCO5)cc32)c1C [Compound C9, (Z)—N-(2-(diethylamino)ethyl)-5-((7-fluoro-5-(8-methyl-2,3-dihydro-1H-pyrido[2,3-b][1,4]oxazin-7-yl)-2-oxoindolin-3-ylidene)methyl)-2,4-dimethyl-1H-pyrrole-3-carboxamide]
IC50: 0.09 nM

Cc1ncc(/C=C2\C(=O)Nc3c(F)cc(-c4cnc5c(c4C)NCCO5)cc32)[nH]1 [Compound C10, (Z)-7-fluoro-3-((2-methyl-1H-imidazol-5-yl)methylene)-5-(8-methyl-2,3-dihydro-1H-pyrido[2,3-b][1,4]oxazin-7-yl)indolin-2-one]
IC50: 0.22 nM

C/C(=C1/C(=O)Nc2ccc(-c3cnc4c(c3C)NCCO4)cc21)c1cnc[nH]1 [Compound C11, (Z)-3-(1-(1H-imidazol-5-yl)ethylidene)-5-(8-methyl-2,3-dihydro-1H-pyrido[2,3-b][1,4]oxazin-7-yl)indolin-2-one]
IC50: 0.44 nM
